Assays:
[1] = system: MDA-MB-453; details: 72 h
Procedure, shortened: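 The reported EC50 was fitted from percent-inhibition dose-response curves and censored at the highest concentration. Breast cancer cell lines (20 µl suspension) were added to 384-well plates containing compound in 5 µl medium and incubated 72 h, and viability was read with 2.5 µl CellTiter-Blue over 2 h at 37 °C at 560/590 nm. Each plate was normalised to vehicle and a positive kill control and checked by Z'-factor, and rows with zero drug sensitivity score were dropped.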

[2] = system: BT-549; assay: normalised viability (% of control), CellTiter-Blue; higher = more viable cells (about 100 = DMSO control); details: incubation time: 72 h
Experimental: (§1)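 DSRT, CellTiter-Blue viability, 72 h incubation. Signal is normalised to DMSO and benzethonium chloride controls. Value is the normalised response at dose 3.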

[3] = system: CAL-120; assay: as above; details: incubation time: 72 h
Experimental: as §1

[4] = system: CAL-148; assay: as above; details: incubation time: 72 h
Experimental: as §1

[5] = system: CAL-85-1; assay: as above; details: incubation time: 72 h
Experimental: as §1

[6] = system: Hs578T; assay: as above; details: incubation time: 72 h
Experimental: as §1

[7] = system: MDA-MB-436; assay: as above; details: incubation time: 72 h
Experimental: as §1

[8] = system: MDA-MB-453; assay: as above; details: incubation time: 72 h
Experimental: as §1

[9] = system: MFM-223; assay: as above; details: incubation time: 72 h
Experimental: as §1

[10] = system: SK-BR-3; assay: as above; details: incubation time: 72 h
Experimental: as §1

[11] = system: BT-474; assay: drug sensitivity score (DSS), CellTiter-Blue viability (DSS (AUC-based score)); higher = stronger viability inhibition; extreme values may be limits of the assay; details: incubation time: 72 h
Procedure, shortened: (§2)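 Breast cancer cell lines (20 µl suspension) were seeded into 384-well plates holding compound in a 5- or 9-concentration series, then incubated 72 h. Viability was read with CellTiter-Blue: 2.5 µl reagent was added per well for 2 h at 37 °C, and fluorescence was read at 560/590 nm. Each plate was normalised to 0.1 % DMSO and a positive kill control. The drug sensitivity score was calculated from the area under the fitted dose-response curve.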

[12] = system: BT-549; assay: as above; details: incubation time: 72 h
Procedure, shortened: as §2

[13] = system: CAL-120; assay: as above; details: incubation time: 72 h
Procedure, shortened: as §2

[14] = system: CAL-148; assay: as above; details: incubation time: 72 h
Procedure, shortened: as §2

[15] = system: CAL-51; assay: as above; details: incubation time: 72 h
Procedure, shortened: as §2

[16] = system: CAL-85-1; assay: as above; details: incubation time: 72 h
Procedure, shortened: as §2

[17] = system: DU-4475; assay: as above; details: incubation time: 72 h
Procedure, shortened: as §2

[18] = system: HCC1599; assay: as above; details: incubation time: 72 h
Procedure, shortened: as §2

[19] = system: HCC1937; assay: as above; details: incubation time: 72 h
Procedure, shortened: as §2

[20] = system: HDQ-P1; assay: as above; details: incubation time: 72 h
Procedure, shortened: as §2

[21] = system: MDA-MB-231; assay: as above; details: incubation time: 72 h
Procedure, shortened: as §2

[22] = system: MDA-MB-436; assay: as above; details: incubation time: 72 h
Procedure, shortened: as §2

[23] = system: MDA-MB-453; assay: as above; details: incubation time: 72 h
Procedure, shortened: as §2

[24] = system: MDA-MB-468; assay: as above; details: incubation time: 72 h
Procedure, shortened: as §2

[25] = system: MFM-223; assay: as above; details: incubation time: 72 h
Procedure, shortened: as §2

[26] = system: SK-BR-3; assay: as above; details: incubation time: 72 h
Procedure, shortened: as §2

What does the source list for `O=C1NC(=O)[C@@H](c2cn3c4c(cccc24)CCC3)[C@@H]1c1c[nH]c2ccccc12` [Tivantinib]?
EC50, CellTiter-Blue viability [1]: 0.169 µM; normalised viability ([2]; 10 nM): 111%; normalised viability ([3]; 10 nM): 90.8%; normalised viability ([4]; 1 nM): 107%; normalised viability ([5]; 1 nM): 105%; normalised viability ([6]; 10 nM): 86.5%; normalised viability ([7]; 10 nM): 101%; normalised viability ([8]; 1 nM): 108%; normalised viability ([9]; 10 nM): 105%; normalised viability ([10]; 10 nM): 77.3%; drug sensitivity score [11]: 1.07; drug sensitivity score [12]: 4.05; drug sensitivity score [13]: 4.4; drug sensitivity score [14]: 1.69; drug sensitivity score [15]: 2.15; drug sensitivity score [16]: 4.04; drug sensitivity score [17]: 1.35; drug sensitivity score [18]: 0.607; drug sensitivity score [19]: 8.31; drug sensitivity score [20]: 0; drug sensitivity score [21]: 1.91; drug sensitivity score [22]: 7.87; drug sensitivity score [23]: 6.08; drug sensitivity score [24]: 1.21; drug sensitivity score [25]: 0; drug sensitivity score [26]: 2.61

Which results are given for `CN1CCN(CCOc2cc(OC3CCOCC3)c3c(Nc4c(Cl)ccc5c4OCO5)ncnc3c2)CC1` [Saracatinib]?
EC50, CellTiter-Blue viability [1]: 2.54 µM; normalised viability ([2]; 100 nM): 112%; normalised viability ([3]; 100 nM): 87.7%; normalised viability ([4]; 10 nM): 80.7%; normalised viability ([5]; 10 nM): 93.9%; normalised viability ([6]; 100 nM): 95.7%; normalised viability ([7]; 100 nM): 109%; normalised viability ([8]; 10 nM): 105%; normalised viability ([9]; 100 nM): 99.6%; normalised viability ([10]; 100 nM): 85.3%; drug sensitivity score [11]: 5.44; drug sensitivity score [12]: 5; drug sensitivity score [13]: 4.64; drug sensitivity score [14]: 1.9; drug sensitivity score [15]: 8.13; drug sensitivity score [16]: 9.72; drug sensitivity score [17]: 0; drug sensitivity score [18]: 0.195; drug sensitivity score [19]: 0; drug sensitivity score [20]: 11.5; drug sensitivity score [21]: 7.77; drug sensitivity score [22]: 0.375; drug sensitivity score [23]: 4.51; drug sensitivity score [24]: 4.05; drug sensitivity score [25]: 0; drug sensitivity score [26]: 3.37

`CN(C)C[C@@H]1CCn2cc(c3ccccc32)C2=C(C(=O)NC2=O)c2cn(c3ccccc23)CCO1` [Ruboxistaurin] was tested. Which “EC50, CellTiter-Blue viability” value [1] did it give?
The value was 4.24 µM.

And the normalised viability ([2]; 100 nM)?
Its normalised viability is 89%.

And the normalised viability ([3]; 100 nM)?
Its normalised viability is 126%.

What about the normalised viability ([4]; 10 nM) of the same compound?
Its normalised viability is 112%.

What about the normalised viability ([5]; 10 nM) of the same compound?
Its normalised viability is 117%.

And the normalised viability ([6]; 100 nM)?
The normalised viability was 68.9%.

And the normalised viability ([7]; 100 nM)?
The normalised viability was 91.6%.

What about the normalised viability ([8]; 10 nM) of the same compound?
The normalised viability was 96.7%.

And the normalised viability ([9]; 100 nM)?
The normalised viability was 105%.

What about the normalised viability ([10]; 100 nM) of the same compound?
Its normalised viability is 82.2%.

What about the drug sensitivity score [11] of the same compound?
Its drug sensitivity score is 6.23.

And the drug sensitivity score [12]?
The drug sensitivity score was 3.74.

What about the drug sensitivity score [13] of the same compound?
The drug sensitivity score was 1.65.

What about the drug sensitivity score [14] of the same compound?
The drug sensitivity score was 3.06.

What about the drug sensitivity score [15] of the same compound?
Its drug sensitivity score is 4.59.

What about the drug sensitivity score [16] of the same compound?
The drug sensitivity score was 0.

What about the drug sensitivity score [17] of the same compound?
Its drug sensitivity score is 6.32.

And the drug sensitivity score [18]?
The drug sensitivity score was 3.54.

What about the drug sensitivity score [19] of the same compound?
Its drug sensitivity score is 6.14.

What about the drug sensitivity score [20] of the same compound?
Its drug sensitivity score is 3.47.

What about the drug sensitivity score [21] of the same compound?
Its drug sensitivity score is 4.1.

What about the drug sensitivity score [22] of the same compound?
The drug sensitivity score was 10.7.

What about the drug sensitivity score [23] of the same compound?
The drug sensitivity score was 4.14.

And the drug sensitivity score [24]?
The drug sensitivity score was 6.34.

And the drug sensitivity score [25]?
The drug sensitivity score was 6.81.

And the drug sensitivity score [26]?
Its drug sensitivity score is 6.94.

For `CCCCCCCCc1ccc(CCC(N)(CO)CO)cc1` [Fingolimod], which “EC50, CellTiter-Blue viability” value [1] is on record?
Its value is 5.4 µM.

And the normalised viability ([2]; 100 nM)?
The normalised viability was 117%.

And the normalised viability ([3]; 100 nM)?
The normalised viability was 90.7%.

And the normalised viability ([4]; 10 nM)?
Its normalised viability is 87.3%.

What about the normalised viability ([5]; 10 nM) of the same compound?
Its normalised viability is 103%.

And the normalised viability ([6]; 100 nM)?
The normalised viability was 97.1%.

And the normalised viability ([7]; 100 nM)?
Its normalised viability is 101%.

And the normalised viability ([8]; 10 nM)?
Its normalised viability is 108%.

And the normalised viability ([9]; 100 nM)?
Its normalised viability is 98.6%.

What about the normalised viability ([10]; 100 nM) of the same compound?
Its normalised viability is 85.8%.

What about the drug sensitivity score [11] of the same compound?
Its drug sensitivity score is 4.46.

And the drug sensitivity score [12]?
Its drug sensitivity score is 6.99.

And the drug sensitivity score [13]?
The drug sensitivity score was 5.43.

What about the drug sensitivity score [14] of the same compound?
The drug sensitivity score was 0.

What about the drug sensitivity score [15] of the same compound?
Its drug sensitivity score is 0.

And the drug sensitivity score [16]?
Its drug sensitivity score is 2.9.

What about the drug sensitivity score [17] of the same compound?
Its drug sensitivity score is 0.

What about the drug sensitivity score [18] of the same compound?
Its drug sensitivity score is 0.

What about the drug sensitivity score [19] of the same compound?
The drug sensitivity score was 5.93.

What about the drug sensitivity score [20] of the same compound?
The drug sensitivity score was 3.07.

What about the drug sensitivity score [21] of the same compound?
Its drug sensitivity score is 7.64.

What about the drug sensitivity score [22] of the same compound?
Its drug sensitivity score is 8.37.

And the drug sensitivity score [23]?
Its drug sensitivity score is 3.02.

What about the drug sensitivity score [24] of the same compound?
The drug sensitivity score was 5.1.

And the drug sensitivity score [25]?
Its drug sensitivity score is 3.93.

And the drug sensitivity score [26]?
Its drug sensitivity score is 4.64.

— the supplement of paper PMC4862054
